Measured values from patent US4778789A, “Piperazinecarboxamides having a phenoxyalkyl or thiophenoxyalkyl side chain” (priority 1985, dated 1988).
Structures can show the parent of a compound that is named as a salt.

Test system: isolation induced aggressive behaviour (male NMRI mice)
Assay: Isolation induced aggressive behaviour test
Format: in vivo
Details: Mus musculus, sc, 0.5 hour after drug administration, read-out: ED50 (dose inhibiting aggressive behaviour among 50 percent of the pairs)
Text: This type of aggression is interesting because it is known that this kind of emotional behaviour might be located in limbic structures in the brain (MacLean, P. D., Psychosom. Med. 11, 338 (1949)).
Every week male NMRI mice, weighing 20-22 g, were isolated in Makrolon cages for three weeks with diet and water ad libitum. A piece of cardboard was placed between the cages to prevent visual contact.
To test aggressiveness the mice were paired in a neutral area, a beaker (14 cm high and diameter 14 cm). A pair is considered aggressive if both the animals show clear signs of fighting within 5 minutes. This fighting is characterized by biting and vocalization. A soon as fighting is seen, the mice are separated and brought to their home cage (every second mouse is marked). […] Animals showing no aggression are discarded.
The test substance is administered s.c. (0.2-0.4 ml/20 g). The mice are paired 0.5 hour after the injection for trials of 5 minutes' duration.
The ED50 -value (mg/kg) reported is the dose inhibiting aggressive behaviour among 50 percent of the pairs 0.5 hour after drug administration.

Structure (SMILES)	ED50
CCNC(=O)N1CCN(CCCOc2ccc(F)cc2)CC1 [1:3, 4-/3-(p-fluorophenoxy)proyl/-N-ethyl-1-piperazinecarboxamide hydrochloride]	5 mg/kg
CSc1ccc2c(c1)N(CCC1CCCCN1C)c1ccccc1S2 (centres unmarked) [Thioridazine]	5 mg/kg
